How the values were obtained:
[1] = Blood Glucose Measurement (Glucose Δ), Test D; type: in vivo, mice; set-up: key to Glucose Δ: change in blood glucose, mg/dL; conditions: for Glucose Δ: 4 hours post dose, 4 hour fasted animals, tail vein whole blood; for % BRL (in vivo, beside Glucose Δ): glucose change relative to BRL
Method: Test D—Blood Glucose Measurement (Glucose Δ) Glucose is obtained 4 hours post dose via tail vein stick (5 μl whole blood) in awake, 4 hour fasted animals. Blood is drawn by capillary action into a glucose cuvette and read in a HemoCue Glucose Analyzer (Ryan Diagnostics). Blood is diluted 1:2 with saline if glucose levels are greater than 400 mg/dl (meter high range) and results multiplied by two.

[2] = tested on: endogenous nuclear receptors in CV-1 cells; assay: CV-1 Native Receptors Transcription Assay (MKNRCV1), Test C; type: cell-based, African green monkey; conditions: for MKNRCV1 % BRL @ 25 μM: percent activity of BRL 49653; for EC50: Chlorocebus sabaeus, CV-1 cells, 48 hours, unit inferred
3T3-L1 preadipocytes = assay: 3T3-L1 Adipocyte Differentiation Assay (ADPDIFF), Test A; type: cell-based; conditions: BODIPY lipid fluorescence, reported as % of BRL 49653 at 5 μM
Method: Cells are replenished with FBS containing media on day 5 of post-drug treatment and incubated for additional 4-6 days. Cells are stained with BODIPY a fluorescent lipophilic stain to quantitate the lipid content of the cells. The assay is optimized for a 96-well plate format. Approximately after 10 days of post-drug treatment, cells are fixed in 3% formalin solution for 15 min followed by staining with BODIPY (80 μg/ml) for 20 min at room temperature. The plate is then put through the CYTOFLUOR instrument to measure the fluorescence of BODIPY (excitation=485/20; emission=530/25).

[3] = tested on: CV-1 cells (FATP promoter luciferase reporter, 300 nM BRL); assay: ANTCV1 Antagonist Transcription Assay, Test B; type: cell-based, African green monkey; conditions: Chlorocebus sabaeus, 25 μM test compound with 300 nM BRL, 48 hrs, % BRL inhibition, read-out: ANTCV1 INHIB @ 25 μM

Structure (SMILES) | EC50 [2] [nM] | Glucose Δ [1] | % BRL (in vivo, beside Glucose Δ) [1] [% BRL] | MKNRCV1 % BRL @ 25 μM [2] [% BRL] | ADPDIFF % BRL @ 5 μM (3T3-L1 preadipocytes) [% BRL] | inhibition at 25 µM [3] [%]
Cc1oc(-c2ccccc2)nc1CCOc1ccc(CC(C(=O)O)n2cccc2C(=O)c2ccccc2)cc1 (stereo not shown) | 12900 | 108.6 | −50.3 | 46 | 33 | –
Cc1oc(-c2ccccc2)nc1CCCc1ccc(C[C@@H](C(=O)O)n2cccc2)cc1 | – | −166.6 | 121.8 | 69 | 62 | –
Cc1oc(-c2ccccc2)nc1CCOc1ccc(CC(C(=O)O)n2cccc2)cc1 (stereo not shown) | – | −196.0 | 109.4 | 86 | 67 | –
Cc1oc(-c2ccccc2)nc1CC#Cc1ccc(C[C@@H](C(=O)O)n2cccc2)cc1 | – | 62.0 | −45.3 | 94 | 100 | –
CCc1nnc([C@H](Cc2ccc(OCCc3nc(-c4ccccc4)oc3C)cc2)n2cccc2)o1 | – | 46.5 | −20.0 | 12 | 88 | 53.8
CC(=O)c1cccn1[C@@H](Cc1ccc(OCCc2nc(-c3ccccc3)oc2C)cc1)C(=O)O [drawing 230] | 3600 | 12.4 | −5.1 | 60 | 89 | 20

More lines, in order of falling EC50 [2], values ahead:

EC50 [2] [nM] | Structure (SMILES) | Glucose Δ [1] | % BRL (in vivo, beside Glucose Δ) [1] [% BRL] | MKNRCV1 % BRL @ 25 μM [2] [% BRL] | ADPDIFF % BRL @ 5 μM (3T3-L1 preadipocytes) [% BRL] | inhibition at 25 µM [3] [%]
1700 | Cc1oc(-c2ccccc2)nc1CCOc1ccc(C[C@@H](C(=O)O)n2cccc2C(=O)C(F)(F)F)cc1 [drawing 233] | −157.2 | 113.3 | 75 | 105 | -1
1000 | CN(CCOc1ccc(CC(C(=O)O)c2ccccc2)cc1)c1nc2ccccc2o1.Cl (stereo not shown) | 172.0 | −52.0 | 91 | 109 | -45
900 | Cc1oc(-c2ccccc2)nc1CCOc1ccc(C[C@@H](C(=O)O)n2ccc(-c3ccccc3)c2)cc1 [drawing 241] | −194.0 | 83.3 | 54 | 125 | 29
700 | O=C(O)[C@H](Cc1ccc(OCCSc2nc3ccccc3s2)cc1)n1cccc1 | 155.0 | −66.5 | 102 | 97 | -102
300 | Cc1oc(-c2ccccc2)nc1CCOc1ccc(CC(C(=O)O)c2ccccc2)cc1 (stereo not shown) | 49.2 | −35.5 | 109 | 94 | -48
200 | Cc1oc(-c2ccccc2)nc1CCOc1ccc(CC(C(=O)O)c2ccc(C(F)(F)F)cc2)cc1 (stereo not shown) | 246.8 | −180.4 | 78 | 107 | -49
150 | Cc1oc(-c2ccccc2)nc1CCOc1ccc(C[C@@H](C(=O)O)c2ccccc2)cc1 [drawing 252] | −58.8 | 17.8 | 106 | 95 | -104
10 | Cc1oc(-c2ccccc2)nc1CCOc1ccc(C[C@@H](C(=O)O)n2cccc2Cl)cc1 | 54.8 | −40.1 | 70 | 86 | -17.5

From patent US20030171377A1, “Antidiabetic agents” (priority 2001, published 2003)
